“Also recorded” adds a separate entry of the source. Like-named read-outs stand apart in the source and are kept apart here.
Key:
[1] = tested on: primary medulloblastoma of Patched (PTCH)+/−, p53−/− mice; assay: Mouse tumor model (tumor inhibition); format: in vivo, SCID mice; details: 100 mg/kg/day, 14 days
Procedure: Tumor cells from the primary medulloblastoma of Patched (PTCH)+/−, p53−/− mice were injected subcutaneously into the right side of SCID mice. About 7 days after implantation, treatments were started when the tumor volume grew to an average of 200 mm^3. Animals were randomly divided into blank group, compound B administration group and compound B1 administration group. The doses of compound B1 and racemic compound B were 100 mg/kg/day. Tumor volume […] and body weight (g) were recorded every other day. After 14 days of administration, mice were sacrificed and the tumors were removed.
Primary medulloblastoma (5×10^6) from Patched(PTCH)+/−, p53−/− mice can be […] injected into the right sides of SCID mice. Seven days after the injection, treatment with drugs can start when the average size of tumors reaches 200 mm^3. Subjects can be randomly assigned to the control group, the compound B-treatment group and the compound B1-treatment group. Compounds B and B1 can be administered at dosages of about 100 mg/kg/day. The tumor volume and the body weights of the subjects can be measured and recorded every other day. On the 14th day after the drug administration, the subjects can be sacrificed and their tumors can be removed.

CYP1A2 = target: T1, CYP1A2 (Homo sapiens, UniProt P05177); assay: CYP liver enzyme inhibition experiment, CYP-1A2; format: in vitro ADME; details: human liver microsomes, pH 7.4, probe phenacetin, test compound 10 μM, HLM, phenacetin 30 μM, read-out: CYP-1A2 Inhibitory rate (%)
T1 construct: containing HLM (0.2 mg/mL), phosphate buffer (100 mM, pH 7.4); from tissue; host or cells: liver microsomes (HLM)
T1 sequence (P05177 1-516): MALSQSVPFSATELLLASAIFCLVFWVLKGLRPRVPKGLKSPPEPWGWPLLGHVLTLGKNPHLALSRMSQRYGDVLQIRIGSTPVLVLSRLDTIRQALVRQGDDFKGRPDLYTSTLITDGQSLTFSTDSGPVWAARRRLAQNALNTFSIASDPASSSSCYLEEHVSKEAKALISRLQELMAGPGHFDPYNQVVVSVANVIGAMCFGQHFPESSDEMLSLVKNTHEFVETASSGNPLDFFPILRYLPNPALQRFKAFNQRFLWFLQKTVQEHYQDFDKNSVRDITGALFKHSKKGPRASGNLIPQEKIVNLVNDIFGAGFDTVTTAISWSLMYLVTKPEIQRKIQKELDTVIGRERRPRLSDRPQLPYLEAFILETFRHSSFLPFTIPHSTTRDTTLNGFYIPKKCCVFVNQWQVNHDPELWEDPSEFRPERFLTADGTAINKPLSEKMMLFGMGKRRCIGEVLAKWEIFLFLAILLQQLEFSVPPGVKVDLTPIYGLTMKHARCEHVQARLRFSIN
Procedure: (§1) The five major CYP isozymes and their respective probe substrates were: CYP-1A2 (phenacetin, 30 μM), CYP-2C9 (toluenesulfonylurea, 100 μM), CYP-2C19 40 μM), CYP-2D6 (dextromethorphan, 5 μM) and CYP-3A4 (midazolam, 1 μM). All probes were used close to or below their KMS concentrations. The mixture (200 μL) was incubated in a 37° C. constant temperature water bath, containing HLM (0.2 mg/mL), phosphate buffer (100 mM, pH 7.4), NADPH […], test compound (10 μM) and the respective CYP probe substrate. Before the reaction with NADPH, the mixture was pre-incubated for 10 minutes to undergo inhibitor-enzyme interaction. After a specific period of time (10 minutes for CYP-1A2, 2D6 and 3A4; 30 minutes for CYP-2C9 and 2C19), the reaction was quenched by addition to 100 μL solution of appropriate amount of cold acetonitrile. Reaction system was centrifuged and injected into the LC-MS/MS to quantify the concentration of specific metabolite formed from the substrate and the CYP enzyme. Each test compound was tested at least three times independently. […]
(§2) Before the start of the reaction with NADPH, the above mixture can be pre-incubated for about 10 minutes to allow inhibitor-enzyme interactions. […] The quenched mixture can be centrifuged, and aliquots of the mixture can then be analyzed by LC-MS/MS to quantify the concentrations of specific metabolic products for each CYP isozyme. […]

CYP2C19 = target: T2, CYP2C19 (Homo sapiens, UniProt P33261); assay: CYP liver enzyme inhibition experiment, CYP-2C19; format: in vitro ADME; details: human liver microsomes, pH 7.4, probe S-mephenytoin, 40 µM, test compound 10 μM, HLM, read-out: CYP-2C19 Inhibitory rate (%)
T2 construct: containing HLM (0.2 mg/mL), phosphate buffer (100 mM, pH 7.4); from tissue; host or cells: liver microsomes (HLM)
Procedure: as §1, §2

CYP2C9 = target: T3, CYP2C9 (Homo sapiens, UniProt P11712); assay: CYP liver enzyme inhibition experiment, CYP-2C9; format: in vitro ADME; details: human liver microsomes
T3 construct: containing HLM (0.2 mg/mL), phosphate buffer (100 mM, pH 7.4); from tissue; host or cells: liver microsomes (HLM)
Procedure: The five major CYP isozymes and their respective probe substrates were: CYP-1A2 (phenacetin, 30 μM), CYP-2C9 (toluenesulfonylurea, 100 μM), CYP-2C19 40 μM), CYP-2D6 (dextromethorphan, 5 μM) and CYP-3A4 (midazolam, 1 μM). All probes were used close to or below their KMS concentrations. The mixture (200 μL) was incubated in a 37° C. constant temperature water bath, containing HLM (0.2 mg/mL), phosphate buffer (100 mM, pH 7.4), NADPH […], test compound (10 μM) and the respective CYP probe substrate. Before the reaction with NADPH, the mixture was pre-incubated for 10 minutes to undergo inhibitor-enzyme interaction. After a specific period of time (10 minutes for CYP-1A2, 2D6 and 3A4; 30 minutes for CYP-2C9 and 2C19), the reaction was quenched by addition to 100 μL solution of appropriate amount of cold acetonitrile. Reaction system was centrifuged and injected into the LC-MS/MS to quantify the concentration of specific metabolite formed from the substrate and the CYP enzyme. Each test compound was tested at least three times independently.
Five major CYP isozymes and their corresponding substrates are: CYP-1A2 (phenacetin, 30 μM), […], CYP2C19 (S-mephenytoin, 40 μM), CYP2D6 (dextromethorphan, 5 μM), and CYP3A4 (midazolam, 1 μM), respectively. All probe substrates were used at or lower than their KMS concentrations.
A mixture (200 μL) can be incubated at 37° C. This mixture can comprise HLM (0.2 mg/mL), phosphate buffer (100 mM, pH at about 7.4), nicotinamide adenine dinucleotide phosphate (NADPH) […], a testing compound (compound B or compound B1), and the individual substrate for the CYP isozyme tested.
Before the start of the reaction with NADPH, the above mixture can be pre-incubated for about 10 minutes to allow inhibitor-enzyme interactions. Then at specific time points (10 minutes time point for CYP-1A2, 2D6 and 3A4; 30 minutes time point for CYP-2C9 and 2C19), the reaction can be quenched by the addition of about 100 μL cold acetonitrile. The quenched mixture can be centrifuged, and aliquots of the mixture can then be analyzed by LC-MS/MS to quantify the concentrations of specific metabolic products for each CYP isozyme. For each testing compound, at least three independent assays can be completed.

CYP3A4 = target: T4, CYP3A4 (Homo sapiens, UniProt P08684); assay: CYP liver enzyme inhibition experiment, CYP-3A4; format: in vitro ADME; details: human liver microsomes, pH 7.4, probe midazolam, test compound 10 μM, HLM, midazolam 1 μM, read-out: CYP-3A4 Inhibitory rate (%)
T4 construct: containing HLM (0.2 mg/mL), phosphate buffer (100 mM, pH 7.4); from tissue; host or cells: liver microsomes (HLM)
Procedure: as §1, §2

[2] = pH 7.4, probe tolbutamide (tolbutamide hydroxylation), Table 6, HLM, read-out: CYP-2C9 Inhibition (%)
[3] = pH 7.4, probe toluenesulfonylurea (tolbutamide), 100 µM, at 10 μM, read-out: inhibitory activity against CYP-2C9
[4] = pH 7.4, probe toluenesulfonylurea (tolbutamide), 100 µM, at a concentration of 10M, read-out: inhibitory rate to CYP-2C9
[5] = pH 7.4, probe toluenesulfonylurea (tolbutamide), 100 µM, test compound 10 μM, HLM, read-out: CYP-2C9 Inhibitory rate (%)

T3 sequence (P11712 whole entry): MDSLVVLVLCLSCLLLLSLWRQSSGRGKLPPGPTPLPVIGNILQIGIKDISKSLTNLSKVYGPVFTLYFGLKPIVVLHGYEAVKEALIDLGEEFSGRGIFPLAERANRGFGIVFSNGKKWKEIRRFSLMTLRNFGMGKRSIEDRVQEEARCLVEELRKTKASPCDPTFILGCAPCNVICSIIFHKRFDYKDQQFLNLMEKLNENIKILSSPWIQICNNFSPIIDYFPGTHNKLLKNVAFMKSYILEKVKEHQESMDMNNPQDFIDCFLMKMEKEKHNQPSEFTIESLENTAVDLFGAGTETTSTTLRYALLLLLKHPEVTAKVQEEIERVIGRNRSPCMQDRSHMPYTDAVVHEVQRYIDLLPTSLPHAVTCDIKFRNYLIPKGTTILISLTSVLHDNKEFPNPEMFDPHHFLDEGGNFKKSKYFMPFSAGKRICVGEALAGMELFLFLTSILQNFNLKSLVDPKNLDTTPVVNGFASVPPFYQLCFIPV
T4 sequence (P08684 whole entry): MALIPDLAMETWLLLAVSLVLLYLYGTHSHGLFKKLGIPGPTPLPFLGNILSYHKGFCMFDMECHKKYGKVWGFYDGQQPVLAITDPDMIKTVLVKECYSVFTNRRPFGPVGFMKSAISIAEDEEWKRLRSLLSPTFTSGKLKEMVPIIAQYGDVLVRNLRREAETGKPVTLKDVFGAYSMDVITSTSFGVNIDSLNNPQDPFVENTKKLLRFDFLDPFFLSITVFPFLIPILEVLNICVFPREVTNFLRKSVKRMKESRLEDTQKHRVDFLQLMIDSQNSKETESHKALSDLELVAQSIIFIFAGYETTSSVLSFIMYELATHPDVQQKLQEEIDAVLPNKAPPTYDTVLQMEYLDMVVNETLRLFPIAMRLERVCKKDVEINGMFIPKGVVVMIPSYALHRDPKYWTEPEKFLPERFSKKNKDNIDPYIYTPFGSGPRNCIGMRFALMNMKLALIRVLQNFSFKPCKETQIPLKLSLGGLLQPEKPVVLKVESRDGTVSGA
T2 sequence (P33261 whole entry): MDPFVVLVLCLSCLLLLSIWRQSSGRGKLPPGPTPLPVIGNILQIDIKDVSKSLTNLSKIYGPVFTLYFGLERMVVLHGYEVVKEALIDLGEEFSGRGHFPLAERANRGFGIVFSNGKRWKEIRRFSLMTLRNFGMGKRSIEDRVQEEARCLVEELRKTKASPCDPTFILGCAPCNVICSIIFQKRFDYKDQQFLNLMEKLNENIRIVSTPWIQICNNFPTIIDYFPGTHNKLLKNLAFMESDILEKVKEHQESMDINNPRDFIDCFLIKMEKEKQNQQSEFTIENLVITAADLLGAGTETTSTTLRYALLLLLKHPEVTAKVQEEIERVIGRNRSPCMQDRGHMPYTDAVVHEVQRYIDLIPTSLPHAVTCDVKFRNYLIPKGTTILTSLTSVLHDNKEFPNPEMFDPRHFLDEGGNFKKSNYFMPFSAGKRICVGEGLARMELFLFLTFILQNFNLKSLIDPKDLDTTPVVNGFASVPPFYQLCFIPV

Row | Structure (SMILES) | effect on tumor volume (in words) [1] | effect on tumor volume (in words) ([1]; listed as racemic compound) | inhibition at 10 min, 10 µM (CYP1A2) [%] | inhibition at 30 min, 10 µM (CYP2C19) [%] | inhibition at 30 min, 10 µM (CYP2C9; [2]) [%] | inhibition at 30 min, 10 µM (CYP2C9; [3]) [%] | inhibition at 30 min, 10 µM (CYP2C9; [4]) [%] | inhibition at 30 min, 10 µM (CYP2C9; [5]) [%] | inhibition at 10 min, 10 µM (CYP3A4) [%] | effect on tumor volume (in words) ([1]; listed as chiral compound)
1 | Cc1cnc(-c2cc(N3CCc4nc(N5CCC(O)CC5)ncc4C3C)ncc2Cl)c(C)c1 (racemic) [B] | stop the tumor from growing; also recorded: only stopped the growth of tumor; also recorded: may stop the tumors from growing | only stop the tumor growth | 21 ± 1.3 | 44 ± 3.3 | 52 ± 5.2 | ~52 | > 50 | 52 ± 5.2 | 21 ± 4 | –
2 | Cc1cnc(-c2cc(N3CCc4nc(N5CCC(O)CC5)ncc4[C@H]3C)ncc2Cl)c(C)c1 [Compound B1, (R)-1-(6-(5′-chloro-3,5-dimethyl-[2,4′-bipyridin]-2′-yl)-5-methyl-5,6,7,8-tetrahydropyrido[4,3-d]pyrimidin-2-yl)piperidin-4-ol] | reduce the tumor volume to almost disappear; also recorded: may decrease the tumor volume | – | 22 ± 15 | 43 ± 2.6 | 26 ± 6 | ~26 | 26 | 26 ± 6 | 20 ± 5.9 | shrink the tumor volume to almost undetectable
